Calls of active or inactive are those of the source. The calls are words filed in the database; no cut-off is given here.
Experiments:
SW480 [1] = assay: Binding affinity to 75kDa protein in human SW480 cells incubated for overnight by pull down based western blot analysis; assay type: cell-based
HCT-116 [2] = assay: Antiproliferative activity against human HCT-116 cells assessed as reduction in cell viability incubated for 48 hrs by MTT assay; assay type: functional, cell-based; conditions: HCT-116, 48 h
SW480 [3] = assay: Binding affinity to 75kDa protein in human SW480 cells incubated for overnight by pull down based silver staining analysis; assay type: cell-based
SW480 [4] = assay: Antiproliferative activity against human SW480 cells assessed as reduction in cell viability incubated for 48 hrs by MTT assay; assay type: functional, cell-based; conditions: SW480, 48 h
HCT-116 [5] = assay: Potency index, ratio of 5-FU IC50 to test compound IC50 for antiproliferative activity against human HCT-116 cells; assay type: functional
A549 = assay: Antiproliferative activity against human A549 cells assessed as reduction in cell viability incubated for 48 hrs by MTT assay; assay type: functional, cell-based; conditions: A549, 48 h
HeLa = assay: Antiproliferative activity against human HeLa cells assessed as reduction in cell viability incubated for 48 hrs by MTT assay; assay type: functional, cell-based
U-87 MG = assay: Antiproliferative activity against human U-87 MG cells assessed as reduction in cell viability incubated for 48 hrs by MTT assay; assay type: functional, cell-based, U-87MG ATCC

C#CCCC1(CCN)N=N1
Activity (SW480 [1]): inactive

CCCCCCCCCC(CC(=O)NCCCCCNC(=O)CCCC[C@@H]1SC[C@@H]2NC(=O)N[C@@H]21)n1cnc2c(Cl)ncnc21 (mixture of isomers)
IC50 (HCT-116 [2]): 44.7 µM | Activity (SW480 [3]): Active | IC50 (SW480 [4]): 45.2 µM

OCCC(CO)n1cnc2c(Cl)ncnc21 (racemic)
IC50 (HCT-116 [2]): > 50 µM | IC50 (SW480 [4]): > 50 µM

CCCCCCCCCC(CCOCP(=O)(OCC)OCC)n1cnc2c(Cl)ncnc21 (racemic)
IC50 (HCT-116 [2]): 9.11 µM | IC50 (SW480 [4]): 4.79 µM

CCCCCCCCCCC(CCO)n1cnc2c(N)ncnc21 (racemic)
Ratio IC50 (HCT-116 [5]): 4 | IC50 (HCT-116 [2]): 2.59 µM

CCCCCCCCCC(CCn1cc(-c2ccccc2)nn1)n1cnc2c(Cl)ncnc21 (racemic)
IC50 (HCT-116 [2]): 13.5 µM | IC50 (SW480 [4]): 9.92 µM

C=C(CO)C(c1ccccc1)n1cnc2c(Cl)ncnc21 (racemic)
IC50 (HCT-116 [2]): 33.3 µM | IC50 (SW480 [4]): 12.9 µM

C#CCCC1(CCNC(=O)CC(CCCCCCCCC)n2cnc3c(Cl)ncnc32)N=N1 (racemic)
Activity (SW480 [1]): Active | IC50 (HCT-116 [2]): 21.5 µM | Activity (SW480 [3]): Active | IC50 (SW480 [4]): 13 µM

C=C(CO)C(CCCCCCCC)n1cnc2c(Cl)ncnc21 (racemic)
IC50 (HCT-116 [2]): 19.4 µM | IC50 (SW480 [4]): 16.2 µM

CCCCCCCCCC(CCOCP(=O)(O)O)n1cnc2c(Cl)ncnc21 (racemic)
IC50 (HCT-116 [2]): > 50 µM | IC50 (SW480 [4]): > 50 µM

C=C(CO)C(CCCCCCCCC)n1cnc2c(Cl)ncnc21 (racemic)
IC50 (HCT-116 [2]): > 50 µM | IC50 (SW480 [4]): 27.6 µM

CCCCCCCCCC(CCN=[N+]=[N-])n1cnc2c(Cl)ncnc21 (racemic)
IC50 (HCT-116 [2]): 1.04 µM | IC50 (SW480 [4]): 1.2 µM

CCCCCCCCCC(CCCl)n1cnc2c(Cl)ncnc21 (racemic)
IC50 (HCT-116 [2]): 10.2 µM | IC50 (SW480 [4]): 7.18 µM

CCCCCCCCCC(CCOS(C)(=O)=O)n1cnc2c(Cl)ncnc21 (racemic)
IC50 (HCT-116 [2]): 5.44 µM | IC50 (SW480 [4]): 5.39 µM

O=c1[nH]cc(F)c(=O)[nH]1 [FLUOROURACIL]
IC50 (A549): > 50 µM | IC50 (HCT-116 [2]): 10.8 µM | IC50 (HeLa): > 50 µM | IC50 (U-87 MG): > 50 µM | IC50 (SW480 [4]): 9.7 µM

Reference: ChEMBL document CHEMBL4811228, “Design, Synthesis, and Activity Evaluation of Novel Acyclic Nucleosides as Potential Anticancer Agents In Vitro and In Vivo” (J Med Chem, 2021)
